Experimental data reported in patent US6313116A, “Benzothiazole compounds and their therapeutic use” (Darwin Discovery, Ltd., priority 2000, dated 2001).
pIC50: −log10 of the molar value.

Target: phosphodiesterase IV
Test: phosphodiesterase IV inhibitory activity (standard assay procedures)
Assay type: biochemical
Settings: assay not given
From the text: The assays used to confirm the phosphodiesterase IV inhibitory activity of compounds of formula (I) are standard assay procedures as disclosed by Schilling et al, Anal. Biochem. 216:154 (1994), Thompson and Strada, Adv. Cycl. Nucl. Res. 8:119 (1979) and Gristwood and Owen, Br. J. Pharmacol. 87:91P (1986).

CCc1nc2c(OC)ccc(C(=O)Nc3ccnn3C)c2s1 [Example 5, 2-Ethyl-4-methoxybenzothiazole-7-carboxylic acid (2-methyl-2H-pyrazol-3-yl)amide]
pIC50: 7.77
